From US4499091A, “1-Amino (or substituted amino)-1,4-dihydro-4-oxo-6-fluoro-7-heterylquinoline-3-carboxylic acids and their use as antibacterial agents” (Sterling Drug Inc., priority 1983, dated 1985)
≈ marks a conversion by molar mass, not a printed value. Like-named read-outs stand apart in the source and are kept apart here.

How the values were obtained:
[1] = system: Pseudomonas aeruginosa MGH-2; experiment: in vitro antibacterial activity, serial dilution (MIC); format: cell-based; details: MGH2, 18-20 hours static incubation, read-out: Minimal Inhibitory Concentration (MIC)
Experimental: (§1) The in vitro antibacterial activity of the compounds of the invention was determined by conventional serial dilution procedures. Bacterial cultures were grown in tryptose phosphate broth or brain heart infusion broth (containing heat-inactivated normal horse serum for tests with S. pyogenes) overnight at 37° C. and subsequently diluted in double strength broth to provide bacterial inocula of about 2×10^5 cells/ml. Aqueous solutions of the compounds of the invention were prepared by dissolving the free acid form in 0.5N sodium hydroxide. The solutions were diluted with sterile distilled water to 1000 mcg/ml of compound in terms of the free acid. Serial two-fold dilutions of the compound stock solutions were prepared in water and 0.5 ml of each dilution was transferred to sets of tubes, one set for each bacterial inoculum.

[2] = system: Proteus mirabilis MGH-1; experiment: as above; format: cell-based; details: MGH1, 18-20 hours static incubation, read-out: Minimal Inhibitory Concentration (MIC)
Experimental: as §1

[3] = system: Proteus vulgaris 9920; experiment: as above; format: cell-based; details: 18-20 hours static incubation, read-out: Minimal Inhibitory Concentration (MIC)
Experimental: as §1

[4] = system: Streptococcus pyogenes C203; experiment: as above; format: cell-based; details: 18-20 hours static incubation, read-out: Minimal Inhibitory Concentration (MIC)
Experimental: as §1

[5] = system: Staphylococcus aureus Smith; experiment: as above; format: cell-based; details: 18-20 hours static incubation, read-out: Minimal Inhibitory Concentration (MIC)
Experimental: as §1

[6] = system: Escherichia coli Vogel; experiment: as above; format: cell-based; details: 18-20 hours static incubation, read-out: Minimal Inhibitory Concentration (MIC)
Experimental: as §1

[7] = system: Klebsiella pneumoniae 39645; experiment: as above; format: cell-based; details: 18-20 hours static incubation, read-out: Minimal Inhibitory Concentration (MIC)
Experimental: as §1

[8] = system: Klebsiella pneumoniae 39645; experiment: in vivo antibacterial activity in mice infected with K. pneumoniae (PD50); design: species or system mouse (female) infected with Klebsiella pneumoniae; details: Klebsiella pneumoniae, 39645, sc, 336 h, read-out: Protective Dose (PD50)
Experimental: (§2) The in vivo antibacterial activity of the compounds of the invention was determined in female mice, 18-20 grams each, by the following procedure:
(§3) Aqueous solutions of the compounds to be tested were prepared by dissolving the free acid form in dilute sodium hydroxide and diluting the solution with distilled water to be desired volume.
(§4) Cultures of Escherichia coli Vogel prepared in brain heart infusion broth, cultures of Klebsiella pneumoniae 39645 grown in tryptose phosphate broth with 5% rabbit serum diluted in the same broth and cultures of Pseudomonas aeruginosa MGH-2 grown on brain heart infusion agar and suspended in physiological saline, were used to infect the mice as follows:
K. pneumoniae: mice were inoculated intramuscularly in the right hind leg with 0.2 ml of the bacterial test inoculum (2.05×10^4 cells/ml).
Mice infected with K. pneumoniae were medicated at the following times: seventeen hours and one hour preinfection, six hours postinfection and twice a day for the next three days. The test compound was administered by both subcutaneous (0.2 ml) and oral (0.5 ml) routes. Deaths were recorded daily for fourteen days.
(§5) Groups of ten animals each for four or five dose levels were thus treated and the number of survivors in each group recorded. The fifty percent protective dose values (PD50) were then calculated.

[9] = system: Escherichia coli Vogel; experiment: in vivo antibacterial activity in mice infected with E. coli (PD50); design: species or system mouse (female) infected with Escherichia coli; details: sc, 168 h, read-out: Protective Dose (PD50)
Experimental: as §2, §3, §4
Mice infected with E. coli were medicated once (0.5 ml) one-half hour post infection, the test compound being administered by either the subcutaneous (s.c.) or oral (p.o.) route. Deaths were recorded daily for seven days.
as §5

[10] = system: Pseudomonas aeruginosa MGH-2; experiment: in vivo antibacterial activity in mice infected with P. aeruginosa (PD50); design: species or system mouse (female) infected with Pseudomonas aeruginosa; details: MGH2, sc, 168 h, read-out: Protective Dose (PD50)
Experimental: as §2, §3, §4
Deaths were recorded daily for seven days.
as §5

[11] = mouse, K. pneumoniae, s.c., pre- and postinfection, 14 days
[12] = mouse, E. coli, s.c., once one-half hour post infection, 7 days

| Compound | MIC [1] | MIC [2] | MIC [3] | MIC [4] | MIC [5] | MIC [6] | MIC [7] | ED50 [8] | ED50 [9] | ED50 [10] | ED50 [8, 11] | ED50 [9, 12] |
| --- | --- | --- | --- | --- | --- | --- | --- | --- | --- | --- | --- | --- |
| CCNn1cc(C(=O)O)c(=O)c2cc(F)c(Cl)cc21 [7-Chloro-1-ethylamino-6-fluoro-1,4-dihydro-4-oxo-3-quinolinecarboxylic acid] | 31.3 µg/mL (≈ 110 µM) | 3.9 µg/mL (≈ 13.7 µM) | 0.25 µg/mL (≈ 0.878 µM) | 31.3 µg/mL (≈ 110 µM) | 15.6 µg/mL (≈ 54.8 µM) | 1.95 µg/mL (≈ 6.85 µM) | 3.9 µg/mL (≈ 13.7 µM) | – | – | – | – | – |
| CNn1cc(C(=O)O)c(=O)c2cc(F)c(N3CCNCC3)cc21 [Example 4, 6-Fluoro-1,4-dihydro-1-methylamino-4-oxo-7-(1-piperazinyl)-3-quinolinecarboxylic acid] | 1 µg/mL (≈ 3.12 µM) | 0.5 µg/mL (≈ 1.56 µM) | 0.25 µg/mL (≈ 0.78 µM) | – | 2 µg/mL (≈ 6.24 µM) | 1 µg/mL (≈ 3.12 µM) | 1 µg/mL (≈ 3.12 µM) | 6.25 mg/kg | 0.32 mg/kg | 0.46 mg/kg | – | – |
| CCCNn1cc(C(=O)O)c(=O)c2cc(F)c(N3CCN(C)CC3)cc21 [Example 6, 6-Fluoro-1,4-dihydro-7-(4-methyl-1-piperazinyl)-4-oxo-1-propylamino-3-quinolinecarboxylic acid] | 31.3 µg/mL (≈ 86.4 µM) | 31.3 µg/mL (≈ 86.4 µM) | 2 µg/mL (≈ 5.52 µM) | 125 µg/mL (≈ 345 µM) | 15.6 µg/mL (≈ 43 µM) | 2 µg/mL (≈ 5.52 µM) | 2 µg/mL (≈ 5.52 µM) | – | – | – | > 200 mg/kg | 32 mg/kg |
| CNn1cc(C(=O)O)c(=O)c2cc(F)c(N3CCN(C(C)C)CC3)cc21 [Example 10, 6-Fluoro-1,4-dihydro-1-methylamino-7-[4-(1-methylethyl)-1-piperazinyl]-4-oxo-3-quinolinecarboxylic acid] | 8 µg/mL (≈ 22.1 µM) | 4 µg/mL (≈ 11 µM) | – | 4 µg/mL (≈ 11 µM) | 2 µg/mL (≈ 5.52 µM) | 0.5 µg/mL (≈ 1.38 µM) | 0.5 µg/mL (≈ 1.38 µM) | – | – | – | 50 mg/kg | 2.7 mg/kg |
| CNn1cc(C(=O)O)c(=O)c2cc(F)c(N3CCCN(C)CC3)cc21 [Example 20, 6-Fluoro-7-(hexahydro-4-methyl-1H-1,4-diazapin-1-yl)-1,4-dihydro-1-methylamino-4-oxo-3-quinolinecarboxylic acid] | 4 µg/mL (≈ 11.5 µM) | 2 µg/mL (≈ 5.74 µM) | – | 32 µg/mL (≈ 91.9 µM) | 4 µg/mL (≈ 11.5 µM) | 2 µg/mL (≈ 5.74 µM) | 4 µg/mL (≈ 11.5 µM) | – | – | – | 33 mg/kg | 3.6 mg/kg |
| CNn1cc(C(=O)O)c(=O)c2cc(F)c(N3CCSCC3)cc21 [Example 21, 6-Fluoro-1,4-dihydro-1-methylamino-4-oxo-7-(4-thiomorpholinyl)-3-quinolinecarboxylic acid] | 4 µg/mL (≈ 11.9 µM) | 2 µg/mL (≈ 5.93 µM) | – | > 8 µg/mL | 0.5 µg/mL (≈ 1.48 µM) | 0.5 µg/mL (≈ 1.48 µM) | 0.5 µg/mL (≈ 1.48 µM) | – | – | – | – | > 200 mg/kg |
| CNn1cc(C(=O)O)c(=O)c2cc(F)c(N3CCC(O)C3)cc21 (centres unmarked) [Example 22, 6-Fluoro-1,4-dihydro-7-(3-hydroxy-1-pyrrolidinyl)-1-methylamino-4-oxo-3-quinolinecarboxylic acid] | 4 µg/mL (≈ 12.4 µM) | 1 µg/mL (≈ 3.11 µM) | – | 16 µg/mL (≈ 49.8 µM) | 1 µg/mL (≈ 3.11 µM) | 1 µg/mL (≈ 3.11 µM) | 4 µg/mL (≈ 12.4 µM) | – | – | – | 118 mg/kg | 10.4 mg/kg |
